Measured values from patent US20220289782A1, “A Compound with High Anticoagulant Activity and Its Preparation Method and Application” (SUZHOU WISMED PHARMACEUTICALS CO LTD, priority 2019, published 2022).

Key:
[1] = Half-life after intravenous injection in male Wistar rats, concentration from plasma anti-factor Xa; assay type: in vivo; details: 1 mg/Kg, T1/2 from concentration-time curve
Protocol: (§1) The pentose (API) in Example 10 is subjected to a biological test: anticoagulant factor Xa activity and half-life (Ti/2), as shown in Table 1. Determination of anticoagulant factor Xa activity: Refer to substrate developing method for determination of anticoagulant factor Xa of low molecular heparin. Measurement of half-life: inject this anticoagulant pentose (dosage 1 mg/Kg) in male Wistar rats intravenously for pharmacokinetic study, calculate the concentration of this compound in blood by measuring the anticoagulant factor Xa in plasma, and calculate the half-life (T1/2) by the concentration-time curve.

factor Xa = test: Determination of anticoagulant factor Xa activity (substrate developing method as for low molecular heparin); assay type: biochemical
Protocol: as §1

In the case of `CO[C@H]1O[C@H](COS(=O)(=O)O)[C@@H](O[C@@H]2O[C@@H](C(=O)O)[C@@H](O[C@H]3O[C@H](COS(=O)(=O)O)[C@@H](O[C@@H]4O[C@H](C(=O)O)[C@@H](O[C@H]5O[C@H](COS(=O)(=O)O)[C@@H](O)[C@H](O)[C@H]5NS(=O)(=O)O)[C@H](O)[C@H]4O)[C@H](OS(=O)(=O)O)[C@H]3NS(=O)(=O)O)[C@H](O)[C@H]2OS(=O)(=O)O)[C@H](O)[C@H]1NS(=O)(=O)O` [Fondaparinux sodium], the Half-life [1] is reported as 0.6 ± 0.1 H and the “Anticoagulant Factor Xa” value (factor Xa) is reported as 750 + 30 IU/mg.
